Where “and” joins values, the source holds several entries; their conditions need not be identical. Equal values may be shown once. Read-outs that look alike come from different tables or passages of the source.

This is an account of results in PMC6650083, “Structure and functional analysis of a bacterial adhesin sugar-binding domain” (PLoS ONE, 2019).

For test [1], the target named is T1, MhPA14 (Marinobacter hydrocarbonoclasticus, UniProt A0ABF7PGZ6). The experiment in a line: Fungal, bacterial and plant polysaccharide array set 2 (Imperial College) probed with GFP_MhPA14. In kind it is binding. As to conditions: 50 μg/mL GFP_MhPA14, anti-GFP antibody detection, average of duplicates. The procedure: The second array was screened at the Carbohydrate Microarray Facility (Glycosciences Laboratory, Imperial College). GFP_MhPA14 (50 μg/mL) was exposed to the ‘Fungal, bacterial and plant polysaccharide array set 2’, which contained duplicates of 20 saccharide probes extracted from a variety of organisms. An Alexa Fluora 647-tagged anti-GFP antibody was used for detection, and the duplicates were averaged to give the final RFU values.

Test [2] concerns the target T1, MhPA14. The experiment in a line: Superdex 200 column affinity test (gradient elution of bound MhPA14). In kind it is binding. As to conditions: increasing gradient, 0-55 mM glucose or 0-5 mM EDTA over 45 min. The procedure: A Superdex 200 10/300 GL column (GE Healthcare) was used to probe the resin-binding ability of MhPA14. Approximately 1 mg of MhPA14 was loaded onto the column and washed with 3 column volumes of Protein Buffer. An increasing gradient of either glucose or EDTA was then implemented, rising from 0 mM– 55 mM glucose or 0 mM– 5 mM EDTA over 45 min.

For the next test, the target named is EpA1. On the set-up: method as in PMID 22349222. As to conditions: EpA1 and its sugar of choice; cited from earlier work.
In test [3] the target is T1, MhPA14. The experiment in a line: Isothermal titration calorimetry (ITC). In kind it is binding. As to conditions: 30°C; for Kd: 400 μM MhPA14, 8 mM sugar. The procedure:
Isothermal calorimetric titration (ITC) measurements were performed using a MicroCal VP-ITC calorimeter (Malvern) set at 30°C. […] Sugars were added from the computer-controlled rotating syringe (400 RPM) at 5-min intervals into the MhPA14 solution for a total of 50 injections. The data were analyzed by Origin software Version 5.0 (Malvern).
Background: Isothermal titration calorimetry measures the heat released or taken up as one component is titrated into another.

For test [4], the target named is T1, MhPA14. Briefly: Dextran-based (Superdex 200 resin) competitive binding assay. The procedure:
Superdex 200 (S200) resin stored in 20% ethanol was washed twice in Protein Buffer using 6600 xg centrifugation. A millilitre of 1 mg/mL MhPA14 fused N-terminally to GFP, named GFP_MhPA14 (S1 Fig), was incubated with 300 μL of equilibrated S200 resin. Following 30 sec of vortexing and 2 min of incubation with slight mixing (nutation), the solution was centrifuged at 6600 xg for 2.5 min and the supernatant discarded. Protein buffer (1 mL) was added to the tube, and the process of mixing followed by centrifugation was repeated. The A280 of the resulting supernatant was taken to account for the minimal amount of non-sugar-related protein disassociation from the resin, and was used as a baseline reading. The supernatant was then returned into its original resin mixture tube with the addition of 1.67 μmoles (3 μL of 555 mM) of saccharide. […] After reading the A280 of the supernatant, the above process was repeated for seven tandem saccharide additions of 1.67 μmoles, as well as a final 5-μmole addition. […]
Attempts to solve MhPA14 structures with other sugars bounds–whether by soaking or co-crystallization–were fruitless. […] The amount of GFP-tagged MhPA14 released from the resin upon each sugar addition was measured using absorbance at 280 nm, which was plotted against concentration of free sugar to produce semi-quantitative binding curves (Fig 8). […]

The mark [5] stands for this setting: fucose and glucose are averages of triplicate runs.
[6] abbreviates: fucose and glucose are averages of triplicate runs, read-out: Kd.

T1 sequence (A0ABF7PGZ6 entry or part of it): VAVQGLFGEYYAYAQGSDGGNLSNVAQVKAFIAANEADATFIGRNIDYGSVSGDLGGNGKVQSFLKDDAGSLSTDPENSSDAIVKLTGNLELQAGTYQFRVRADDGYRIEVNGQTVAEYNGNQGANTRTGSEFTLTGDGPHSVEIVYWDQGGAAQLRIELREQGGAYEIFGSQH

As for dextran, the “Affinity for MhPA14 on polysaccharide array” value at MhPA14 [1] was “modest affinities”. On the same count and under the same terms, the entry for curdlan is “almost no affinity”; for pullulan it is “modest affinities”.

As for `O=C(O)CN(CCN(CC(=O)O)CC(=O)O)CC(=O)O` [EDTA], at MhPA14 [2], the “Concentration at which MhPA14 eluted from Superdex S200 column” value amounted to 3.5 mM.

As to lentinan, on MhPA14 [1], the “Affinity for MhPA14 on polysaccharide array” value was “strongest affinity”. Broadly, the Kd is the constant that tells how readily two partners part at equilibrium. On to `O=C[C@H](O)[C@@H](O)[C@@H](O)[C@H](O)CO` [Galactose], for which the Kd on EpA1 was 115 µM; on MhPA14 [3] (Kd), over 1000 µM; on MhPA14 [3] (Kd, fucose and glucose are averages of triplicate runs), 1540 µM. Besides, on MhPA14 [3] (setting [5]), the “N (calculated stoichiometry)” value is 1.00.

As for `OC[C@H]1OC(O)[C@H](O)[C@@H](O)[C@@H]1O` (stereo partly drawn) [Glucose, glucose], the “Concentration at which MhPA14 eluted from Superdex S200 column” value on MhPA14 [2] turned out to be 25 mM. In addition, the Kd at MhPA14 [3] (setting [6]) worked out at 137 µM. In addition, on MhPA14 [3] (setting [5]), the “N (calculated stoichiometry)” value is on record as 1.01 ± 0.14. In the case of `O=CC[C@@H](O)[C@H](O)[C@H](O)CO` [2-deoxy-D-glucose], the equilibrium dissociation constant (Kd) on MhPA14 [3] (setting [6]) worked out at 228 µM. The “N (calculated stoichiometry)” value at MhPA14 [3] (setting [5]) was 0.86. Consider `C[C@H](O)[C@@H](O)[C@@H](O)[C@H](O)C=O` [Fucose, 6-deoxy-L-galactose], for which the equilibrium dissociation constant (Kd) at MhPA14 [3] (setting [6]) is 58 µM and 58.2 µM. For the same compound, the “N (calculated stoichiometry)” value at MhPA14 [3] (setting [5]) is listed as 0.98 ± 0.03. On to `CC(=O)N[C@@H]1[C@@H](O)[C@@H](O)[C@@H](CO)O[C@@H]1O` [N-acetylgalactosamine], for which the “Kdapp (apparent dissociation constant)” value at MhPA14 [4] (GFP_MhPA14 displaced from Superdex 200 resin by free sugar, A280 readout, triplicate, semi-quantitative) was “Non-binding”. The “Binding in competitive binding assay” value at MhPA14 [4] (GFP_MhPA14 on Superdex 200 resin) was “unable to bind MhPA14 at all”.
